Legend:
[1] = system: Pseudomonas aeruginosa ATCC 27853; assay: disk diffusion assay; type: cell-based; details: 10 micrograms per disk; ciprofloxacin 5, vancomycin 30 micrograms per disk; 35° C. Further: key: R = resistant.
[2] = system: Candida parasilosis ATCC 22019; assay: disk diffusion assay; type: cell-based, Candida parapsilosis; details: 10 micrograms per disk; 35° C. Further: key: R = resistant.
[3] = system: Candida albicans ATCC 24433; assay: disk diffusion assay; type: cell-based; details: 10 micrograms per disk; 35° C. Further: key: R = resistant.
[4] = system: Neisseria gonnorhea ATCC 49226; assay: disk diffusion assay; type: cell-based; details: 10 micrograms per disk; ciprofloxacin 5, vancomycin 30 micrograms per disk; GC agar with 1% growth supplement with 5% CO2
[5] = system: Staphylococcus aureus ATCC 33591 (MRSA); assay: microbroth dilution MIC; type: cell-based; details: methicillin resistant strain; first listing in Table 4
[6] = system: Candida tropicalis ATCC 750; assay: disk diffusion assay; type: cell-based; details: 10 micrograms per disk; 35° C. Further: key: R = resistant.
[7] = system: S. epidermis ATCC 12228; assay: disk diffusion assay; type: cell-based, Staphylococcus epidermidis; details: 10 micrograms per disk; 35° C.
[8] = system: Candida krusei ATCC 6258; assay: disk diffusion assay; type: cell-based; details: 10 micrograms per disk; 35° C.
[9] = system: Acinetobacter sp. ATCC 49137; assay: disk diffusion assay; type: cell-based; details: 10 micrograms per disk; ciprofloxacin 5, vancomycin 30 micrograms per disk; grown at 30° C.
[10] = system: Streptococcus pneumoniae ATCC 49619; assay: disk diffusion assay; type: cell-based; details: 10 micrograms per disk; ciprofloxacin 5, vancomycin 30 micrograms per disk; MHA with 5% dsb. and 5% CO2
[11] = system: Enterococcus faecalis ATCC 29212; assay: disk diffusion assay; type: cell-based; details: 10 micrograms per disk; ciprofloxacin 5, vancomycin 30 micrograms per disk; 35° C.
[12] = system: Candida parasdosis ATCC 90018; assay: disk diffusion assay; type: cell-based, Candida parapsilosis; details: 10 micrograms per disk; 35° C. Further: key: R = resistant.
[13] = system: Vibrio fischeri PIC 345; assay: disk diffusion assay; type: cell-based; details: 10 micrograms per disk; ciprofloxacin 5, vancomycin 30 micrograms per disk; 35° C.
[14] = system: gram positive bacteria including Staphylococcus species, Streptococcus pneumoniae, Enterococcus species, Bacillus subtilis, and Listeria monocytogenes; assay: activity against Gram positive bacteria (general statements); type: cell-based
[15] = system: Pythium ultimum; assay: microbroth dilution MIC, plant associated microorganisms; type: cell-based; details: PD broth, 48 hours at 23° C.
Protocol: (§1) Incubation was for 48 hours at 23° C. A plant pathogenic strain of Pseudomonas syringae was also tested using the same PD broth medium and with concentrations of colony forming units as given above. The organisms were obtained from the Montana State University plant pathogen culture collection administered by Dr. […] The relative activities against plant pathogenic fungi ranged from a few tenths of a microgram up to thirty micrograms. Table 2 provides the results of tests of inhibitory activity of the munumbicins against various plant-pathogenic fungi and one pathogenic bacterium. The data are reported as MIC values in micrograms/ml.

[16] = system: Sclerotinia sclerotiorum; assay: as above; type: cell-based; details: PD broth, 48 hours at 23° C.
Protocol: as §1

[17] = system: Pseudomonas syringae; assay: as above; type: cell-based; details: PD broth
Protocol: as §1

[18] = system: Plasmodium falciparum strain CSC-1 (Honduras); assay: antimalarial assay, 3H-phenylalanine radiobioassay in human red blood cells; details: human red blood cells, 3H-phenylalanine; standard deviation of the mean, three experiments
[19] = system: Aspergillus fumigatus; assay: microbroth dilution MIC
[20] = system: Cryptococcus neoformans; assay: microbroth dilution MIC
[21] = system: Shigella dysenteriae ATCC 11835; assay: disk diffusion assay; type: cell-based; details: 10 micrograms per disk; 35° C.
[22] = system: brine shrimp; assay: brine shrimp assays; details: preliminary assays
[23] = system: Staphylococcus aureus ATCC 29213; assay: disk diffusion assay; type: cell-based; details: 10 micrograms per disk; ciprofloxacin 5, vancomycin 30 micrograms per disk; 35° C.
[24] = system: S. maltophilia ATCC 13637; assay: disk diffusion assay; type: cell-based, Stenotrophomas maltophilia; details: 10 micrograms per disk; 35° C.
[25] = system: Candida glabrata ATCC 2001; assay: disk diffusion assay; type: cell-based; details: 10 micrograms per disk; 35° C. Further: key: R = resistant.
[26] = system: Enterococcus faecalis ATCC 51299 (VRE); assay: microbroth dilution MIC; type: cell-based; details: resistant to vancomycin; first listing in Table 4
[27] = system: Bacillus anthracis K8902; type: cell-based; details: 10 micrograms per disk; ciprofloxacin 5, vancomycin 30 micrograms per disk; 35° C.
[28] = system: Enterococcus faecalis ATCC 51299; assay: disk diffusion assay; type: cell-based; details: 10 micrograms per disk; ciprofloxacin 5, vancomycin 30 micrograms per disk; 35° C.
[29] = system: Human Cervical Cancer Epithelial ME180; assay: CellTiter 96 Aqueous Non-Radioactive Cell Proliferation Assay; type: cell-based; details: 48 hours; Table 7
Protocol: (§2) The munumbicins were then tested against three human cancer cell lines (ATCC) and human primary mammary epithelial cells (HMECs) (Clonetics; Biowhittaker, Walkersville, Md.) using a CellTiter 96® Aqueous Non-Radioactive Cell Proliferation Assay kit from Promega (Madison, Wis.). The cell lines were A-549 (lung epithelial carcinoma, ATCC CCL-185), ME-180 (cervical epithelial epidermoid carcinoma, ATCC HTB-33), and BT-20 (breast epithelial cancer, ATCC HTB-19), and were grown in the media recommended by ATCC. The primary mammary cells were cultured as recommended by the manufacturer in mammary epithelial cell growth media (MEGM®). […] After seeding, the cells were incubated for five hours at 37° C. before addition of the munumbicins. Two-fold serial dilutions of the munumbicins were made in the culture medium, and a volume equal to that of the seeded cells for each dilution was added to three wells of cells. Each plate also contained some wells with cells plus medium only and some wells with medium only. […] The A-549 and ME-180 cells were incubated for 48 hours. […] The plates were incubated at 37° C. for one to four hours, and the OD490 was determined. The OD reading of all wells was corrected for background by subtracting the reading of wells containing medium only. […] Kakadumycin A was tested against three human cancer cell lines (ATCC) and human primary mammary epithelial cells using the procedure described above for the munumbicins. Kadadumycin B was tested against one human cancer cell line.

[30] = system: Human Breast Cancer Epithelial BT-20; assay: as above; type: cell-based; details: 96-144 hours; Table 7
Protocol: as §2

[31] = system: Human Lung Cancer Epithelial A549; assay: as above; type: cell-based; details: 48 hours; Table 7
Protocol: as §2

[32] = system: Human Primary Mammary Epithelial HMEC; assay: as above; type: cell-based; details: 48 hours; Table 7
Protocol: as §2

[33] = system: Candida albicans ATCC 90028; assay: disk diffusion assay; type: cell-based; details: 10 micrograms per disk; 35° C. Further: key: R = resistant.
[34] = system: Escherichia coli ATCC 25922; assay: disk diffusion assay; type: cell-based; details: 10 micrograms per disk; penicillin G 10 units per disk; 35° C. Further: key: R = resistant.

Substance: munumbicin A
- diameter of the zone of inhibition, Pseudomonas aeruginosa ATCC 27853 [1]: R
- diameter of the zone of inhibition, Candida parasilosis ATCC 22019 [2]: R
- diameter of the zone of inhibition, Candida albicans ATCC 24433 [3]: R
- diameter of the zone of inhibition, Neisseria gonnorhea ATCC 49226 [4]: 9 mm
- MIC Staphylococcus aureus ATCC 33591 [5]: not active
- diameter of the zone of inhibition, Candida tropicalis ATCC 750 [6]: R
- diameter of the zone of inhibition, S. epidermis ATCC 12228 [7]: 9 mm
- diameter of the zone of inhibition, Candida krusei ATCC 6258 [8]: R
- diameter of the zone of inhibition, Acinetobacter sp. ATCC 49137 [9]: R
- diameter of the zone of inhibition, Streptococcus pneumoniae ATCC 49619 [10]: R
- diameter of the zone of inhibition, Enterococcus faecalis ATCC 29212 [11]: R
- diameter of the zone of inhibition, Candida parasdosis ATCC 90018 [12]: R
- diameter of the zone of inhibition, Vibrio fischeri PIC 345 [13]: R
- activity against Gram positive bacteria incl. drug resistant strains (in words) [14]: shows activity
- MIC Pythium ultimum [15]: 2.0 micrograms/ml
- MIC Sclerotinia sclerotiorum [16]: 8.0 micrograms/ml
- MIC Pseudomonas syringae [17]: 15.6 micrograms/ml
- IC50 Plasmodium falciparum [18]: 0.175 ± 0.106 µg/mL
- MIC Aspergillus fumigatus [19]: 20 micrograms/ml
- MIC Cryptococcus neoformans [20]: 10 micrograms/ml
- diameter of the zone of inhibition, Shigella dysenteriae ATCC 11835 [21]: R
- LC50 brine shrimp [22]: 3.3 micrograms/ml
- diameter of the zone of inhibition, Staphylococcus aureus ATCC 29213 [23]: R
- diameter of the zone of inhibition, S. maltophilia ATCC 13637 [24]: R
- diameter of the zone of inhibition, Candida glabrata ATCC 2001 [25]: R
- MIC Enterococcus faecalis ATCC 51299 [26]: 8 micrograms/ml
- diameter of the zone of inhibition, Bacillus anthracis K8902 [27]: 9.5 mm
- diameter of the zone of inhibition, Enterococcus faecalis ATCC 51299 [28]: R
- IC50 Human Cervical Cancer Epithelial ME180 [29]: 0.51 micrograms/ml
- IC50 Human Breast Cancer Epithelial BT-20 [30]: 0.19 micrograms/ml
- IC50 Human Lung Cancer Epithelial A549 [31]: 1 micrograms/ml
- IC50 Human Primary Mammary Epithelial HMEC [32]: 0.331 micrograms/ml
- diameter of the zone of inhibition, Candida albicans ATCC 90028 [33]: R
- diameter of the zone of inhibition, Escherichia coli ATCC 25922 [34]: R

Source: US7259004B1, “Endophytic streptomycetes from higher plants with biological activity” (Montana State University, priority 2002, dated 2007)
